Source: patent US20100016275A1, “NOVEL COMPOUND 395” (priority 2008, published 2010)

Legend:
human hepatocytes = test: Human hepatic intrinsic clearance (CLint) assay in human hepatocytes; type: in vitro ADME; conditions: human hepatocytes, protein free suspension buffer, pH 7.4, 37° C.
Source text: The hepatic metabolic component of human clearance is predicted from scaled in vitro intrinsic clearance (CLint) data from human hepatocytes (see Chem Biol Interact. 2007, 168(1), 2-15) and from the extent of human blood binding, primarily due to plasma protein binding. The well stirred model of the liver is a model for predicting blood clearance in the liver from intrinsic clearance (CLint) determined using hepatocytes. (see Drug Metab Dispos. 2005, 33(9), 1304-11) The model is usually written as:
Human Hepatic Intrinsic Clearance (CLint) Assay
For the majority of drugs, a large component of their plasma clearance is contributed by hepatic metabolism. Intrinsic clearance (CLint) is a measure of the potential of a compound to undergo metabolism and can be related to hepatic clearance in vivo from a consideration of plasma protein binding and liver blood flow. Therefore, CLint may be used as an index of the relative metabolic stability of compounds within a project and compared with other external probe substrates. Furthermore, the measurement of CLint in vitro within a research project, where hepatic metabolic clearance is known to be an issue, may be a useful means of understanding the different pharmacokinetic behaviour of the compounds in vivo.
This following description outlines a method for estimating intrinsic clearance (CLint) from human hepatocyte incubations using suspension buffer containing no HSA (human serum albumin) and maintaining physiological conditions of pH 7.4.
Hepatocytes were prepared by a two-step in situ collagenase perfusion method of a portion of the human liver, suspended in protein free buffer (see below) and stored on ice, prior to incubation.
This method is based on the procedure of Seglen (Preparation of rat liver cells. I. Effect of Ca^2+ on enzymatic dispersion of isolated, perfused liver. Exptl. Cell Res., 1972, 74, p450 and preparation of isolated rat liver cells. Methods Cell Biol., 1976, 13, p 29) which itself was developed from the one step procedure of Berry and Friend (High-yield preparation of isolated rat liver parenchymal cells. J. Cell Biol., 1969, 43, p 506).
Suspension medium: 2.34 g Na HEPES, 2.0 g HSA fraction V, 0.4 g D-fructose, DMEM (1 L powder equivalent, Sigma; w/1 g.1^−1 glucose, w/Na pyruvate, w/o NaHCO3, w/o phenol red), made up to 1 L with Milli-Q water, pH to 7.4 with 1 M HCl. (Protein free suspension buffer is made omitting the 2.0 g HSA fraction V)
The capsule of a liver which has been perfused with digestion medium was cut open and the cells gently teased out into the medium. The cells were then passed through a mesh (approximately 250 μM) into a beaker containing 50 ml suspension medium. The mesh was rinsed through into the beaker with further suspension buffer to a final volume of 100 ml. The suspension was divided between two plastic 50 mL centrifuge tubes (pre-cooled on ice) and centrifuged at 50×g for 2 min at 4° C. The supernatants were decanted and the pellets re-suspended in protein free suspension buffer to the original volume. The centrifugation step was repeated and each pellet re-suspended in approximately 10 ml protein free suspension buffer. The suspensions were combined and the volume made up to 50 mL with protein free suspension buffer.
An aliquot of cell suspension (0.2 mL) was diluted with 0.2 ml protein free suspension buffer. To the diluted cells was added 0.2 mL trypan blue solution (0.4% w/v) followed by gentle mixing. After 1 min, a pasteur pipette was used to withdraw a sample and fill an Improved Neubauer Counting Chamber by capillary action. The cells were then counted (central square only) using an inverted microscope, viable cells being able to exclude the dye and non-viable cells being stained. The percentage of viable cells in the preparation was calculated thus: […]

Human hepatocyte Intrinsic-clearance assay CLint (human hepatocytes)	melting point	Compound
17 μL/min/10^6 cells	–	Cc1ccc(CSc2nc(N[C@H](C)CO)cc(NS(=O)(=O)N3CCC3)n2)c(F)c1C [Example 42]
–	116 to 116.5 °C	C[C@@H](Nc1cc(NS(=O)(=O)N2CCC2)nc(SCc2cccc(F)c2F)n1)[C@@H](O)CO [Example 1, N-(2-[(2,3-difluorobenzyl)thio]-6-{[(1R,2R)-2,3-dihydroxy-1-methylpropyl]amino}pyrimidin-4-yl)azetidine-1-sulfonamide]
